This note sets out measurements from patent US20150141336A1, “Pancreatic Peptide Compounds and Use” (Novo Nordisk A/S, priority 2012, published 2015).

Numbered stars: 1 amine (or outer) side, 2 acyl side, 3 side chain; on linkers, the order of the positions; unused ones are H or OH. Side chains are listed from the residue outwards. Peptide text beside a SMILES is read from it. * marks the point of attachment. C18 diacid = O=C(O)CCCCCCCCCCCCCCCCC(=O)*; γGlu = O=C(O)[C@H](CCC(=O)[*:2])N[*:1]; AEEA = NCCOCCOCC(=O)O

In general, half-life refers to the time in which the quantity being followed falls by half.

A short description of this data set: Assay (II) PK i.v. minipig, in vivo half-life. Further details: species or system Göttingen mini-pigs. As to conditions: male, Göttingen, minipig, iv, Half-life minipig, Assay (II). The procedure:
An assay useful for measuring the pharmacokinetic (PK) profile of the PP peptide is the following mini-pig PK assay.
Five male Göttingen mini-pigs weighing approximately 18 to 22 kg from Ellegaard Göttingen Minipigs NS, Denmark are included in the study. The mini-pigs have two central venous catheters inserted which are used for intra venous (i.v.) dosing and blood sampling. The test compound is dissolved in 50 mM K2HPO4, 0.05% tween 80, pH=8.0 to a concentration of 180 nmol/ml. For comparison a control compound, such as human PP(1-36), may be administered. The pigs are dosed with 6 nmol test compound/kg body weight. Blood samples are taken at the following time points: pre-dose, 30 minutes, 1, 2, 4, 8, 24, 48, 72, 96, 120, 168 and 240 hours post dosing. The blood samples were collected into test tubes containing EDTA buffer for stabilization and kept on ice for max. 20 minutes before centrifugation. The centrifugation procedure to separate plasma may be: 4° C., approx. 2500 g for 10 minutes. Plasma is collected and immediately transferred to Micronic tubes stored at −20° C. until assayed.
The test compounds were assayed in plasma by Turbulent Flow Chromatography coupled to Liquid Chromatography with subsequent Tandem Mass Spectrometric Detection (TFC/LC/MS/MS). Positive mode ionization and Multiple Reaction Monitoring (MRM) of a multiple protonated species fragmented to a singly charged ion was employed for selectivity. The selectivity of the method allows multiple compounds to be quantified in one sample.
The concentrations of the test compound in samples of unknown concentration were calculated using the peak area as a function of amount. Calibration graphs based on plasma samples spiked with the analyte were constructed by regression analysis. Typical dynamic range for standard assay was 1-2000 nmol/I. The method performance was assured by co-assaying quality control (QC) samples in duplicate at three concentration levels.
Stock and working solutions of analytes were prepared in plasma and incubated by 37° C. for 1 hour.
Sample Preparation: 40.0 μl EDTA-plasma was added 160 μl 50% methanol, 1% formic acid, then vortexed and centrifuged at 16457 g at 4° C. for 20 minutes. The supernatant was transferred to a 96 well plate, plates incubated with 0.4% BSA, 37° C. for ½ hour. Injection volume was 25 μl.
The analysis was carried out on a Sciex API 3000 mass spectrometer (MDS/Sciex, Concord, ON, Canada) using a TurbolonSpray interface. The TFC/LC system consisted of two Flux Rheos 2000 quaternary pumps, a Cohesive VIM module (Cohesive Technologies, Franklin, Mass., USA) and a CTC LC/PAL auto sampler (CTC Analytics, Zingen, Switzerland). The centrifuge employed was a HettichMikro 22R (A. Hettich, Tuttlingen, Germany). For sample clean up a TurboFlow C8 column (0.5×50 mm) (Cohesive Technologies/Thermofisher) was used and the LC separation was done on a Proteo 4 μm column (2.0×50 mm) (Phenomenex, Torrance, Calif., USA). Eluents were isocratic and gradient combinations of methanol, acetonitril, Milli-Q water and formic acid.
Non-compartmental analysis (NCA): Plasma concentration-time profiles are analyzed by non-compartmental pharmacokinetics analysis (NCA) using WinNonlin Professional 5.0 (Pharsight Inc., Mountain View, Calif., USA). NCA is performed using the individual plasma concentration-time profiles from each animal.
Take `CC[C@H](C)[C@H](NC(=O)[C@H](Cc1ccc(O)cc1)NC(=O)[C@H](CCCNC(=N)N)NC(=O)[C@H](CCCCNC(=O)COCCOCCNC(=O)COCCOCCNC(=O)CC[C@H](NC(=O)CCCCCCCCCCCCCCCCC(=O)O)C(=O)O)NC(=O)[C@H](CC(C)C)NC(=O)[C@H](CC(=O)O)NC(=O)[C@H](C)NC(=O)[C@H](C)NC(=O)[C@H](Cc1ccc(O)cc1)NC(=O)[C@H](CCC(N)=O)NC(=O)[C@H](C)NC(=O)[C@H](CCSC)NC(=O)[C@H](CCC(N)=O)NC(=O)[C@H](CCC(=O)O)NC(=O)[C@@H]1CCCN1C(=O)[C@@H](NC(=O)[C@H](C)NC(=O)[C@H](CC(N)=O)NC(=O)[C@H](CC(=O)O)NC(=O)CNC(=O)[C@@H]1CCCN1C(=O)[C@H](Cc1ccc(O)cc1)NC(=O)[C@@H](NC(=O)[C@@H]1CCCN1C(=O)[C@H](CCC(=O)O)NC(=O)[C@@H](N)CC(C)C)C(C)C)[C@@H](C)O)C(=O)N[C@@H](CC(N)=O)C(=O)N[C@@H](CCSC)C(=O)N[C@@H](CC(C)C)C(=O)N[C@H](C(=O)N[C@@H](CCCNC(=N)N)C(=O)N1CCC[C@H]1C(=O)N[C@@H](CCCNC(=N)N)C(=O)N[C@@H](Cc1ccc(O)cc1)C(N)=O)[C@@H](C)O` [Compound AQ] (H-LEPVYPGDNATPEQMAQYAADLK([AEEA-AEEA-γGlu-C18 diacid])RYINMLTRPRY-NH2; N-terminus and C-terminus assumed): the half-life is 48 h.
Under `CC[C@H](C)[C@H](NC(=O)[C@H](Cc1ccc(O)cc1)NC(=O)[C@H](CCCNC(=N)N)NC(=O)[C@H](CCCNC(=N)N)NC(=O)[C@H](CC(C)C)NC(=O)[C@H](CC(=O)O)NC(=O)[C@H](C)NC(=O)[C@H](C)NC(=O)[C@H](Cc1ccc(O)cc1)NC(=O)[C@H](CCCCNC(=O)COCCOCCNC(=O)COCCOCCNC(=O)CC[C@H](NC(=O)CCCCCCCCCCCCCCCCC(=O)O)C(=O)O)NC(=O)[C@H](C)NC(=O)[C@H](CCSC)NC(=O)[C@H](CCC(N)=O)NC(=O)[C@H](CCC(=O)O)NC(=O)[C@@H]1CCCN1C(=O)[C@@H](NC(=O)[C@H](C)NC(=O)[C@H](CC(N)=O)NC(=O)[C@H](CC(=O)O)NC(=O)CNC(=O)[C@@H]1CCCN1C(=O)[C@H](Cc1ccc(O)cc1)NC(=O)[C@@H](NC(=O)[C@@H]1CCCN1C(=O)[C@H](CCC(=O)O)NC(=O)[C@H](CC(C)C)NC(=O)[C@@H]1CCCN1)C(C)C)[C@@H](C)O)C(=O)N[C@@H](CC(N)=O)C(=O)N[C@@H](CCSC)C(=O)N[C@@H](CC(C)C)C(=O)N[C@H](C(=O)N[C@@H](CCCNC(=N)N)C(=O)N1CCC[C@H]1C(=O)N[C@@H](CCCNC(=N)N)C(=O)N[C@@H](Cc1ccc(O)cc1)C(N)=O)[C@@H](C)O` [Compound O] (H-PLEPVYPGDNATPEQMAK([AEEA-AEEA-γGlu-C18 diacid])YAADLRRYINMLTRPRY-NH2; N-terminus and C-terminus assumed) stands 60 h.
On to `CC[C@H](C)[C@H](NC(=O)[C@H](Cc1ccc(O)cc1)NC(=O)[C@H](CCCNC(=N)N)NC(=O)[C@H](CCCNC(=N)N)NC(=O)[C@H](CC(C)C)NC(=O)[C@H](CC(=O)O)NC(=O)[C@H](C)NC(=O)[C@H](C)NC(=O)[C@H](CCCCNC(=O)COCCOCCNC(=O)COCCOCCNC(=O)CC[C@H](NC(=O)CCCCCCCCCCCCCCCCC(=O)O)C(=O)O)NC(=O)[C@H](CCC(N)=O)NC(=O)[C@H](C)NC(=O)[C@H](CCSC)NC(=O)[C@H](CCC(N)=O)NC(=O)[C@H](CCC(=O)O)NC(=O)[C@@H]1CCCN1C(=O)[C@@H](NC(=O)[C@H](C)NC(=O)[C@H](CC(N)=O)NC(=O)[C@H](CC(=O)O)NC(=O)CNC(=O)[C@@H]1CCCN1C(=O)[C@H](Cc1ccc(O)cc1)NC(=O)[C@@H](NC(=O)[C@@H]1CCCN1C(=O)[C@H](CCC(=O)O)NC(=O)[C@@H](N)CC(C)C)C(C)C)[C@@H](C)O)C(=O)N[C@@H](CC(N)=O)C(=O)N[C@@H](CCSC)C(=O)N[C@@H](CC(C)C)C(=O)N[C@H](C(=O)N[C@@H](CCCNC(=N)N)C(=O)N1CCC[C@H]1C(=O)N[C@@H](CCCNC(=N)N)C(=O)N[C@@H](Cc1ccc(O)cc1)C(N)=O)[C@@H](C)O` [Compound AV] (H-LEPVYPGDNATPEQMAQK([AEEA-AEEA-γGlu-C18 diacid])AADLRRYINMLTRPRY-NH2; N-terminus and C-terminus assumed), for which the half-life was 28 h.
